Structures are written as SMILES. Read-outs that look alike come from different tables or passages of the source.

The test system of assay [1] is 786-O (renal cell carcinoma) cells. Description: Cell proliferation (Alamar Blue) assay, 786-O cells. To be noted: Homo sapiens. The class given is cell-based. On the procedure:
(§1) Cell viability assay was performed to assess the potency of the compounds in human cancer cell lines 786-0 (renal cell carcinoma) and SJSA-1 (osteosarcoma). Additional cell lines, such as pancreatic cancer cell lines (Panc 02.13, BxPC-3, Panc 12, Panc 02.03, Panc 6.03, PSN-1, HPAC, and Capan-1), prostate cancer cell lines (PC-3, DU145, […], NCI-H660, 1PH1 LNCaP, BM-1604, and MDA PCa 2b), etc., can be tested in a similar method.
(§2) Cells (SJSA-1, 786-0 and A431) were seeded (5000 cells/100 μL/well) in 96-well tissue culture plate and incubated at 37° C./500 CO2 for 16-24 hours. The cells were then treated with compounds (25 μL of 5×). The compound concentrations were 10-0.0005 μM prepared in 3-fold serial dilutions with final DMSO concentration of 1%. The plates were then incubated for 24 h at 37° C./[…] in a moist environment. Then Alamar Blue™ reagent (final concentration 1×-12.5 μL) was added to each well and incubated for 1.5 hours at 37° C./500 CO2. The plates were read on fluorescence reader at 540 nm excitation and 590 nm emission wavelengths. The IC50 values were subsequently determined using a sigmoidal dose-response curve (variable slope) in GraphPad Prism® 5 software. Tables A-3 and B-11 show cell proliferation data for exemplary compounds as described herein.
On the technique in general: Alamar Blue is a resazurin reagent that responds to reducing activity.

Assay [2] deals with 786-O cells + Ferrastatin-1. Nature of the assay: GPX4 inhibition assay: cell proliferation (Alamar Blue) in 786-O cells with ferrostatin rescue. To be noted: 786-O cells with Ferrastatin-1 (rescue), read-out: Cell proliferation IC50 (μM) 786-O + Ferrastatin-1. The class given is cell-based, human. On the procedure:
as §2
Studies have shown that lipophilic antioxidants, such as ferrostatin, can rescue cells from GPX4 inhibition-induced ferroptosis. For instance, mesenchymal state GPX4-knockout cells can survive in the presence of ferrostatin, however, when the supply of ferrostatin is terminated, these cells undergo ferroptosis (see, e.g., Viswanathan et al., Nature 547:453-7, 2017). […] Accordingly, the ability of a molecule to induce ferroptotic cancer cell death, and that such ability is admonished by the addition of ferrostatin, is clear indication that the molecule is an GPX4 inhibitor. Cell proliferation data for exemplary compounds with and without ferrostatin can be seen in Table A-3.

Assay [3] deals with A431 cells. Description: Cell proliferation (Alamar Blue) assay, A431 cells. The class given is cell-based. To be noted: Homo sapiens. As for the experimental part: as §1, §2
Setting [4] is: 786-0, 786-O cells, 24 h compound incubation, Alamar Blue, read-out: Cell proliferation IC50 (μM) 786-O.
The mark [5] stands for this setting: A-431, A431 cells, 24 h compound incubation, Alamar Blue, read-out: Cell proliferation IC50 (μM) A431.
Where [6] appears, read: 786-0, 786-O cells, 24 h compound treatment, Alamar Blue, read-out: IC50 (μM) 786-O.
Setting [7] is: A-431, A431 cells, 24 h compound treatment, Alamar Blue, read-out: IC50 (μM) A431.

Consider `COc1ccc2c(c1)C[C@H](C1CCC1)N(C(=O)C#C[Si](C)(C)C)[C@@H]2c1ccc(NC23CC4CC(CC(C4)C2)C3)cc1` (stereo in doubt) [Compound A-8, 1-((1R,3R)-1-(4-(((3S,5S,7S)-adamantan-1-yl)amino)phenyl)-3-cyclobutyl-6-methoxy-3,4-dihydroisoquinolin-2(1H)-yl)-3-(trimethylsilyl)prop-2-yn-1-one], for which the figures for the IC50 in assay [1] (setting [4]), in assay [2] and in assay [3] (setting [5]) were 0.064 µM, 5.05 µM and 4.79 µM, respectively.

On to `CCCC[C@H]1Cc2cc(OC)ccc2[C@@H](c2ccc(NC34CC5CC(CC(C5)C3)C4)c(C#N)c2)N1C(=O)C#C[Si](C)(C)C` (stereo in doubt) [Compound A-16, 2-(((3S,5S,7S)-adamantan-1-yl)amino)-5-((1R,3S)-3-butyl-6-methoxy-2-(3-(trimethylsilyl)propioloyl)-1,2,3,4-tetrahydroisoquinolin-1-yl)benzonitrile], for which the IC50 in assay [1] (setting [4]) is 0.016 µM; in assay [2], greater than 10 µM; in assay [3] (setting [5]) it was no less than 10 µM.

Turning to `CCCC[C@H]1Cc2cc(OC)ccc2[C@H](c2ccc(C#N)cc2)N1C(=O)C#C[Si](C)(C)C` [Compound A-1], the values for the IC50 in assay [1] (setting [4]), in assay [2] and in assay [3] (setting [5]) were 0.043 µM, 7 µM and greater than 10 µM, respectively.

On to `CCCC[C@H]1Cc2c([nH]c3ccccc23)[C@H](c2ccc(NC3CCC3)cc2)N1C(=O)C#C[Si](C)(C)C` [Compound A-2], for which the IC50 is 0.009 µM in assay [1] (786-0, 24 h, read-out: Cell proliferation IC50 (μM) 786-O); 8.63 µM in assay [2]; greater than 10 µM in assay [3] (A-431, 24 h, read-out: Cell proliferation IC50 (μM) A431).

For `CCC[C@H]1Cc2cc(OC)ccc2[C@H](c2ccc(NC34CC5CC(CC(C5)C3)C4)cc2)N1C(=O)C#C[Si](C)(C)C` [Compound A-3], the IC50 in assay [1] (setting [4]) is 0.029 µM; in assay [2], greater than 1 µM.

As to `CCC[C@H]1Cc2cc(OC)ccc2[C@@H](c2ccc(NC34CC5CC(CC(C5)C3)C4)cc2)N1C(=O)C#C[Si](C)(C)C` [Compound A-4], the IC50 in assay [1] (setting [4]) is 0.067 µM; in assay [2] it was greater than 1 µM; in assay [3] (setting [5]) it was greater than 1 µM.

Take `COC[C@H]1Cc2cc(OC)ccc2[C@@H](c2ccc(NC34CC5CC(CC(C5)C3)C4)cc2)N1C(=O)C#C[Si](C)(C)C` [Compound A-5]: the IC50 was 0.039 µM in assay [1] (setting [4]), greater than 1 µM in assay [2] and greater than 1 µM in assay [3] (setting [5]).

In the case of `CCCC[C@H]1Cc2cc(OC)ccc2[C@H](c2ccc(NC34CC5CC(CC(C5)C3)C4)cc2)N1C(=O)C#C[Si](C)(C)C` [Compound A-6, 1-((1S,3S)-1-(4-(((1s,3R)-adamantan-1-yl)amino)phenyl)-3-butyl-6-methoxy-3,4-dihydroisoquinolin-2(1H)-yl)-3-(trimethylsilyl)prop-2-yn-1-one], the IC50 is 0.021 µM in assay [1] (setting [4]), greater than 1 µM in assay [2] and greater than 1 µM in assay [3] (setting [5]).

As for `COc1ccc2c(c1)C[C@H](C1CCC1)N(C(=O)C#C[Si](C)(C)C)[C@H]2c1ccc(NC23CC4CC(CC(C4)C2)C3)cc1` [Compound A-7, 1-((1S,3R)-1-(4-(((3R,5R,7R)-adamantan-1-yl)amino)phenyl)-3-cyclobutyl-6-methoxy-3,4-dihydroisoquinolin-2(1H)-yl)-3-(trimethylsilyl)prop-2-yn-1-one], the IC50 in assay [1] (setting [4]) was 0.021 µM; in assay [2], greater than 1 µM.

For `CCCC[C@H]1Cc2cc(OC)ccc2[C@H](C23CC(F)(C2)C3)N1C(=O)C#C[Si](C)(C)C` [Compound A-9, 1-((1S,3S)-3-butyl-1-(3-fluorobicyclo[1.1.1]pentan-1-yl)-6-methoxy-3,4-dihydroisoquinolin-2(1H)-yl)-3-(trimethylsilyl)prop-2-yn-1-one], the IC50 was 0.18 µM in assay [1] (setting [4]), greater than 1 µM in assay [2] and greater than 1 µM in assay [3] (setting [5]).

As for `CCCC[C@H]1Cc2cc(OC)ccc2[C@@H](C23CC(F)(C2)C3)N1C(=O)C#C[Si](C)(C)C` [Compound A-10, 1-((1R,3S)-3-butyl-1-(3-fluorobicyclo[1.1.1]pentan-1-yl)-6-methoxy-3,4-dihydroisoquinolin-2(1H)-yl)-3-(trimethylsilyl)prop-2-yn-1-one], the IC50 in assay [1] (setting [4]) was 0.075 µM; in assay [2] it was greater than 1 µM; in assay [3] (setting [5]), greater than 1 µM.

Turning to `CCCC[C@H]1Cc2cc(OC)ccc2[C@H](c2ccc(NC3CC(F)(F)C3)cc2)N1C(=O)C#C[Si](C)(C)C` [Compound A-11, 1-((1S,3S)-3-butyl-1-(4-((3,3-difluorocyclobutyl)amino)phenyl)-6-methoxy-3,4-dihydroisoquinolin-2(1H)-yl)-3-(trimethylsilyl)prop-2-yn-1-one], the IC50 in assay [1] (setting [4]) is 0.109 µM; in assay [2], greater than 1 µM; in assay [3] (setting [5]) it was greater than 1 µM.

`CCCC[C@H]1Cc2cc(OC)ccc2[C@H](c2ccc(N3CCC(F)(F)C3)cc2)N1C(=O)C#C[Si](C)(C)C` [Compound A-12, 1-((1S,3S)-3-butyl-1-(4-(3,3-difluoropyrrolidin-1-yl)phenyl)-6-methoxy-3,4-dihydroisoquinolin-2(1H)-yl)-3-(trimethylsilyl)prop-2-yn-1-one]: the IC50 was 0.051 µM in assay [1] (setting [4]), greater than 1 µM in assay [2] and greater than 1 µM in assay [3] (setting [5]).

With `CCCC[C@H]1Cc2cc(OC)ccc2[C@H](c2ccc(NC34CC5CC(CC(C5)C3)C4)c(C#N)c2)N1C(=O)C#C[Si](C)(C)C` [Compound A-15, 2-(((3R,5R,7R)-adamantan-1-yl)amino)-5-((1S,3S)-3-butyl-6-methoxy-2-(3-(trimethylsilyl)propioloyl)-1,2,3,4-tetrahydroisoquinolin-1-yl)benzonitrile], the figures for the IC50 in assay [1] (setting [4]) and in assay [2] were 0.021 µM and greater than 1 µM, respectively.

As for `CCCC[C@H]1Cc2cc(OC)ccc2[C@H](c2ccc(NC3CCC3)cc2)N1C(=O)C#C[Si](C)(C)C` [Compound A-25, 1-((1S,3S)-3-butyl-1-(4-(cyclobutylamino)phenyl)-6-methoxy-3,4-dihydroisoquinolin-2(1H)-yl)-3-(trimethylsilyl)prop-2-yn-1-one], the IC50 in assay [1] (setting [4]) is 0.171 µM; in assay [2], greater than 1 µM.

In the case of `CCCC[C@H]1Cc2cc(OC(F)(F)F)ccc2[C@H](c2ccc(NC34CC5CC(CC(C5)C3)C4)cc2)N1C(=O)C#C[Si](C)(C)C` [Compound A-26, 1-((1S,3S)-1-(4-(((3R,5R,7R)-adamantan-1-yl)amino)phenyl)-3-butyl-6-(trifluoromethoxy)-3,4-dihydroisoquinolin-2(1H)-yl)-3-(trimethylsilyl)prop-2-yn-1-one], the IC50 is 0.043 µM in assay [1] (setting [4]), 4.19 µM in assay [2] and 3.05 µM in assay [3] (setting [5]).

Regarding `CCCC[C@H]1Cc2cc(C(F)(F)F)ccc2[C@H](c2ccc(NC34CC5CC(CC(C5)C3)C4)cc2)N1C(=O)C#C[Si](C)(C)C` [Compound A-28], the IC50 turned out to be 0.015 µM in assay [1] (setting [4]), 3.58 µM in assay [2] and 2.94 µM in assay [3] (setting [5]).

As to `CCCC[C@H]1Cc2cc(OC)ccc2[C@H](c2ccc(NC34CC5CC(CC(C5)C3)C4)cc2)N1C(=O)C#C[Si](C)(C)CC` [Compound A-33, 1-((1S,3S)-1-(4-(((1s,3R)-adamantan-1-yl)amino)phenyl)-3-butyl-6-methoxy-3,4-dihydroisoquinolin-2(1H)-yl)-3-(ethyldimethylsilyl)prop-2-yn-1-one], the IC50 is 0.023 µM in assay [1] (setting [4]) and greater than 1 µM in assay [2].

In the case of `CCCC[C@H]1Cc2cc(OC)ccc2[C@H](c2ccc(NC34CC5CC(CC(C5)C3)C4)cc2)N1C(=O)C#C[Si](C)(C)CCCOC(C)=O` [Compound A-41], the IC50 is 0.0125 µM in assay [1] (setting [4]), 1.86 µM in assay [2] and 0.563 µM in assay [3] (setting [5]).

Take `COc1ccc2c(c1)C[C@H](CC(C)C)N(C(=O)C#C[Si](C)(C)C)[C@H]2c1ccc(NC23CC4CC(CC(C4)C2)C3)cc1` [Compound A-43]: the IC50 in assay [1] (setting [4]) came to 0.0725 µM; in assay [2], 2.13 µM; in assay [3] (setting [5]), 1.83 µM.

As for `C#CC(=O)N1[C@@H](CCC)Cc2cc(OC)ccc2[C@@H]1c1ccc(NC23CC4CC(CC(C4)C2)C3)cc1` [Compound B-43], the values for the IC50 in assay [1] (setting [6]) and in assay [3] (setting [7]) were 0.006 µM and 4.1 µM, respectively.

`C#CC(=O)N1[C@@H](CCC)Cc2cc(OC)ccc2[C@H]1c1ccc(NC23CC4CC(CC(C4)C2)C3)cc1` [Compound B-44]: the results for the IC50 in assay [1] (setting [6]) and in assay [3] (setting [7]) were 0.054 µM and greater than 1 µM, respectively.

As for `C#CC(=O)N1[C@H](c2ccc(NC34CC5CC(CC(C5)C3)C4)cc2)c2ccc(OC)cc2C[C@@H]1C1CCC1` [Compound B-51], the values for the IC50 in assay [1] (setting [6]) and in assay [3] (setting [7]) were 0.072 µM and 4.9 µM, respectively.

Values taken from patent US20240092739A1, “COMPOUNDS AND METHODS OF USE” (Ferro Therapeutics, Inc, priority 2020, published 2024).
